Laboratory results taken from patent US20250333398A1, “MONOARYL AND HETARYL SUBSTITUTED INDAZOLES AND BENZIMIDAZOLES AS STING ANTAGONISTS AND THE USE THEREOF AS MEDICAMENT” (Boehringer Ingelheim International GmbH, priority 2024, published 2025).

Columns and labels:
STING = tested on: T1, STING; test: Human whole blood assay (HWBA), cGAMP-stimulated IFNα2α production; assay type: cell-based; details: human whole blood stimulated by cGAMP
T1 construct: from tissue; host or cells: human whole blood from healthy donors
Description: For the detection of STING inhibition in physiological environment human whole blood was stimulated by the cyclic dinucleotide cGAMP. Pathway activity was monitored by measuring the IFNα2α production.
Assay method: Compounds were delivered as 10 mM DMSO solution and serial diluted and transferred to the 96-well Cell culture Plate (Corning #3595), prefilled with 20 μl OptiMEM (Gibco #11058-021) in each well, using an Echo acoustic dispenser. Typically, 8 concentrations were used with the highest concentration at 10 μM in the final assay volume followed by ^˜1:5 dilution steps. DMSO concentration was set to 0.1% in the final assay volume. The 96 well assay plate contained 9 test compounds, a reference compound and DMSO in control wells.
Collection of human whole blood from 3 or more healthy donors (male or female, no medication for 7 days, exception contraceptive and thyroxine) as Na-citrate blood (e.g. 3.8% in Monovettes from Sarstedt) is conducted in parallel. Whole blood was kept at room temperature for a maximum of 3 hours after collection until use in the assay.
160 μl of the whole blood samples were transferred to each well of the 96-well assay plates filled with compound/OptiMEM. All assay plates are prepared as duplicates with blood from different donors. Blood plates were kept at room temperature for 60 minutes and continuous shaking with 450 rpm, covered with the lid, but not sealed.
A 10× cGAMP assay solution was diluted from a 2 mM stock solution in 1×HBSS immediately before use at room temperature. 20 μl of the 10× cGAMP/HBSS were added to all compound and all high control wells, whereas HBSS only was added to all low control wells.
After covering assay plates with aera seals and the lid, blood plates were kept at room temperature for 30 minutes and continuous shaking with 450 rpm, followed by an overnight incubation of 22 h at 37° C. in the incubator, without shaking.
For the detection of IFNα-2α in human plasma, the biotinylated capture antibody (Antibody set IFNA2, Meso Scale Diagnostics #B21VH-3, including coating and capture antibody) was diluted 1:17.5 in Diluent 100 (Meso Scale Diagnostics #R50AA-4, according to the manufacturer. U-Plex MSD GOLD 96-well Small Spot Streptavidin SECTOR Plates (Meso Scale Diagnostics #L45SA-5) were coated with 25 μl diluted capture antibody. Coated plates were incubated for 60 min at room temperature under continuous shaking at 700 rpm. MSD IFNα-2α plates were washed three times with 150 μl wash buffer (1×HBSS, 0.05% Tween).
After blocking the plates with 100 μl block solution/well (1×HBSS with 0.2% Tween, 2% BSA) for 60 min at room temperature and continuous shaking at 700 rpm, plates were emptied as dry as possible by dumping just before continuing with the human plasma. Whole Blood assay plates were centrifuged at 1600 rpm for 10 minutes. 25 μl of supernatant was transferred with a pipetting robotics from each whole blood plate to the corresponding IFNα-2α plate. Plates were sealed with microplate seals and kept at room temperature again under continuous shaking at 700 rpm for two hours. Next MSD IFNα-2α plates were washed three times with 150 μl wash buffer (1×HBSS, 0.05% Tween), before adding 25 μl MSD SULFO-TAG IFNα-2α Antibody solution (1:100 diluted in Diluent 3 (Meso Scale Diagnostics #R50AP-2) to each well of the plates. Afterwards plates were sealed with microplate seals and kept at room temperature again under continuous shaking at 700 rpm for two hours. Finally, MSD IFNα-2α plates were washed three times with 150 μl wash buffer (1×HBSS, 0.05% Tween). 150 μl 2× Read buffer was added to each well and plates were immediately measured with the MSD Sector S600 Reader using the vendor barcode.
Data evaluation and calculation: For data evaluation and calculation, % control calculation of each well was based on the mean of high (cGAMP stimulated control) and mean of low (unstimulated control) controls by using the following formula: […]

[1] = tested on: T2, wild-type (GRR) human STING cGAMP binding domain (residues 155-341); test: Differential Scanning Fluorimetry (DSF), stability of STING protein against thermal denaturation; details: 100 uM compound, 3 uM target protein
T2 construct: His-TEV-hSTING (WT); TEV protease cleavage site (N); made in house; host or cells: E. coli BL21 DE3
Description: Dye fluorescence is quenched in aqueous environment and increases upon association of the dye with the hydrophobic parts of the unfolding protein. […] The inflection point of the curve represents the “melting” temperature of the protein (Tm) which is calculated numerically using the Boltzmann equation.
Method: The thermal stability of the STING protein was measured using a specific expression construct of the cGAMP binding domain of wild-type (GRR) human STING comprising residues 155-341 and a N-terminal 8x His-tag in assay buffer containing 20 mM Tris, 150 mM NaCl at pH7.5.
The assay uses Hard-Shell®PCR Plates 384-Well CLR/WHT (Catalog #HSP3805, BIO-RAD), Microseal®‘B’ Adhesive Seals for PCR Plates (Catalog #MSB-1001, BIO-RAD) and was run on a CFX384 Real-Time System (Bio-Rad).
A DMSO stock solution of SYPRO orange (SIGMA S5692-500UL) was prepared.
Compound stock solutions (10 mM in DMSO) were diluted 1:2 in DMSO to an intermediate compound concentration of 5 mM and then further diluted 1:40 in assay buffer resulting in a compound concentration of 125 μM and 2.5% DMSO.
Fluorescent dye stock solution (5000×SYPRO Orange) was then mixed with target protein and buffer to a concentration of 15 uM Protein and 25×SYPRO Orange. 2 ul of this protein-dye-mixture was added to 8 ul compound solution. Final volume was 10 uL. 3-6 well positions were used as negative control (protein with 2% DMSO). The plates were prepared for duplicate measurement and centrifuged for 2 min at 1000 g. In the measurement, 160 cycles of 0.5° C. were used (temperature ramp 15 s/cycle, 15° C. to 95° C.).
Final Assay concentrations for compound characterization were as follows:
100 uM compound, 3 uM target protein, 5×SYPRO Orange, 2% DMSO in 10 ul. All dispensing steps were performed using a HamiltonStar pipetting robot (Hamilton).
Dissociation curves were processed in Bio-Rad CFX Manager. Peak type was set to “negative”.
Compound codes for screen were assigned in the plate layout.
Two replicates of TM measurements were averaged, and the standard deviation was calculated. In cases of SD>1.5° C. the measurement was repeated.
The melting point (Tm) obtained for STING protein alone was subtracted from T obtained for protein incubated with ligand to generate ΔTm values.
Protein production and purification: The protein used for the biophysical experiments was a recombinant human STING protein comprising its cytosolic ectodomain. A codon optimized DNA sequence (for expression in Escherichia coli) encoding amino acid residues 155 to 341 (Swiss Prot Q86WV6) of human STING (WT) was synthesized by GeneArt (Regensburg, Germany) and inserted into a pET17b E. coli expression vector. The protein construct encodes an N-terminal 8× His-tag followed by tobacco etch virus protease (TEV) cleavage site and the above STING gene sequence. The resulting protein sequence for the used STING variant is listed below:
For expression of recombinant human STING above construct was transformed into E. coli BL21 DE3 strain and grown in shake flasks in LB-medium at 37° C. Expression was induced by addition of isopropyl β-D-1-thiogalactopyranoside to a final concentration of 1 mM and cultures shaken overnight. Cell pellets were centrifuged and stored at −70° C. until further use. Protein was purified by cell thawing in lysis buffer (20 mM TRIS-HCl, pH 8, 300 mM NaCl, 2 mM mercaptoethanol, 20 mM imidazole, Complete Protease Inhibitor (Roche) and DNase (Roche)), followed by metal affinity purification using Ni-NTA resins and elution buffer consisting of 20 mM TRIS-HCl, pH 8, 300 mM NaCl, 2 mM mercaptoethanol, 300 mM imidazole and size exclusion chromatography in running buffer (20 mM TRIS-HCl, pH 8, 100 mM NaCl, 2 mM DTT). The peak fraction was collected and concentrated to 2.5 mg/mL.

SMILES	IC50 (STING) [nM]	DSF ΔTm (K) [1] [K]
Cn1c(-c2ccc(P(C)(C)=O)cc2OC(F)(F)F)nc(-c2cccc3nn(-c4cc(C(F)(F)F)[nH]n4)cc23)c1C1CC1 [Example 21, 4-{5-cyclopropyl-2-[4-(dimethylphosphoryl)-2-(trifluoromethoxy)phenyl]-1-methylimidazol-4-yl}-2-[5-(trifluoromethyl)-1H-pyrazol-3-yl]indazole]	130	29
CNC(=O)c1ccc(-c2nc(-c3cccc4nn(-c5cn(C6CC6)nc5OC)cc34)c(C3CC3)n2C)c(OC(F)(F)F)c1 [Example 1, 4-{5-cyclopropyl-4-[2-(1-cyclopropyl-3-methoxy-1H-pyrazol-4-yl)-2H-indazol-4-yl]-1-methyl-1H-imidazol-2-yl}-N-methyl-3-(trifluoromethoxy)benzamide]	82	28
